Test results reported in patent US8268862B2, “Sirtuin modulating compounds” (Sirtris Pharmaceuticals, Inc., priority 2007, dated 2012).

Target: T1, SIRT1 (Homo sapiens, UniProt Q96EB6)
T1 sequence (Q96EB6 1-747): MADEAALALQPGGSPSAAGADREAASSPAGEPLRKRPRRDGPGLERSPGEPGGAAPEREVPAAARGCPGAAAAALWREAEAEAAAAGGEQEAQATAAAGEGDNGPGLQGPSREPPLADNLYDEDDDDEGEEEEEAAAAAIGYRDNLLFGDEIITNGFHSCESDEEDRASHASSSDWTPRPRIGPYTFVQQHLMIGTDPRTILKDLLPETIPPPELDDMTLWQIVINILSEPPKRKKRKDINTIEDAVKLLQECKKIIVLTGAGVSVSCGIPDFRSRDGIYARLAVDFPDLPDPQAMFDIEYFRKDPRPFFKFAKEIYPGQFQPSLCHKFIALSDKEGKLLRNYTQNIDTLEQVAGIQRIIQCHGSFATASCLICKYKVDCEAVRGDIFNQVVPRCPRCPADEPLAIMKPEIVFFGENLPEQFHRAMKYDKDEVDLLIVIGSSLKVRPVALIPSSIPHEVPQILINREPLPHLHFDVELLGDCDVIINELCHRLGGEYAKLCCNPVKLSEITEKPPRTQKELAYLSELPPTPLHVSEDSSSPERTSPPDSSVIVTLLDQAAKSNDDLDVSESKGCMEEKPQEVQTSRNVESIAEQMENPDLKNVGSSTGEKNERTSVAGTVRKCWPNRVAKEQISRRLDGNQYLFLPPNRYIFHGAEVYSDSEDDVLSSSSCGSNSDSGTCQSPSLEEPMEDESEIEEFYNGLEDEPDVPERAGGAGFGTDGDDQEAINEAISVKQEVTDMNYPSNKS
Assay: mass spectrometry based SIRT1 deacetylation assay (activation)
Assay type: biochemical
Conditions: 0.5 μM peptide substrate, 120 μM βNAD+, 10 nM SIRT1, 25 min at 25° C.; for EC1.5 (concentration of test compound that results in 150% activation of SIRT1): NA = not active in the assay; for Emax: read-out: % FOLD ACT. (percent maximum fold activation of SIRT1)
Source text: A mass spectrometry based assay was used to identify modulators of SIRT1 activity. The mass spectrometry based assay utilizes a peptide having 20 amino acid residues as follows: Ac-EE-K(biotin)-GQSTSSHSK(Ac)NleSTEG-K(5TMR)-EE-NH2 (SEQ ID NO: 1) wherein K(Ac) is an acetylated lysine residue and Nle is a norleucine. The peptide is labeled with the fluorophore 5TMR (excitation 540 nm/emission 580 nm) at the C-terminus. The sequence of the peptide substrate is based on p53 with several modifications. In addition, the methionine residue naturally present in the sequence was replaced with the norleucine because the methionine may be susceptible to oxidation during synthesis and purification.
Test compounds may be added to the reaction as described above. […] After the 25 minute incubation with SIRT1, 10 μL of 10% formic acid is added to stop the reaction. Reactions are sealed and frozen for later mass spec analysis. Determination of the mass of the substrate peptide allows for precise determination of the degree of acetylation (i.e. starting material) as compared to deacetylated peptide (product).
A control for inhibition of sirtuin activity is conducted by adding 1 μL of 500 mM nicotinamide as a negative control at the start of the reaction (e.g., permits determination of maximum sirtuin inhibition). A control for activation of sirtuin activity is conducted using 10 nM of sirtuin protein, with 1 μL of DMSO in place of compound, to determine the amount of deacetylation of the substrate at a given timepoint within the linear range of the assay. This timepoint is the same as that used for test compounds and, within the linear range, the endpoint represents a change in velocity.
For the above assay, SIRT1 protein was expressed and purified as follows. […] The protein was expressed by induction with 1 mM IPTG as an N-terminal His-tag fusion protein at 18° C. overnight and harvested at 30,000×g. Cells were lysed with lysozyme in lysis buffer (50 mM Tris-HCl, 2 mM Tris[2-carboxyethyl]phosphine (TCEP), 10 μM ZnCl2, 200 mM NaCl) and further treated with sonication for 10 min for complete lysis. The protein was purified over a Ni-NTA column (Amersham) and fractions containing pure protein were pooled, concentrated and run over a sizing column (Sephadex S200 26/60 global). The peak containing soluble protein was collected and run on an Ion-exchange column (MonoQ). Gradient elution (200 mM-500 mM NaCl) yielded pure protein. This protein was concentrated and dialyzed against dialysis buffer (20 mM Tris-HCl, 2 mM TCEP) overnight. The protein was aliquoted and frozen at −80° C. until further use.
Sirtuin modulating compounds that activated SIRT1 were identified using the assay described above and are shown below in Table 3. The EC1.5 values represent the concentration of test compounds that result in 150% activation of SIRT1. NT means that the compound was not tested using the indicated assay. NA means that the compound was not active in the indicated assay.

| SMILES | EC1.5 (concentration of test compound that results in 150% activation of SIRT1) [NM] | Emax [%] |
| --- | --- | --- |
| O=C(Nc1ccccc1-c1nc2cc(CN3CCOCC3)cnc2s1)c1cccc(-c2ccccc2)c1 [Compound 1] | 233 | 241 |
| O=C(Nc1ccccc1-c1nc2cc(CN3CCOCC3)cnc2s1)c1cc(-c2ccccc2)no1 [Compound 2] |  | 132 |
| O=C(Nc1ccccc1-c1nc2cc(CN3CCOCC3)cnc2s1)c1cc(-c2ccccc2)n[nH]1 [Compound 3] | 1620 | 246 |
| O=C(Nc1ccccc1-c1nc2cc(CN3CCOCC3)cnc2s1)c1cccc(-c2ccccn2)c1 [Compound 4] | 504 | 321 |
| O=C(Nc1ccccc1-c1nc2cc(CN3CCOCC3)cnc2s1)c1cccc(-c2cccnc2)c1 [Compound 5] | 665 | 281 |
| O=C(Nc1ccccc1-c1nc2cc(CN3CCOCC3)cnc2s1)c1cccc(-c2ccncc2)c1 [Compound 6] | 746 | 274 |
| O=C(Nc1ccccc1-c1nc2cc(CN3CCNCC3)cnc2s1)c1cccc(-c2ccccn2)c1 [Compound 8] | 340 | 471 |
| O=C(Nc1ccccc1-c1nc2cc(CN3CCNCC3)cnc2s1)c1cccc(-c2cccnc2)c1 [Compound 9] | 416 | 392 |
| O=C(Nc1ccccc1-c1nc2cc(CN3CCNCC3)cnc2s1)c1cccc(-c2ccncc2)c1 [Compound 10] | 492 | 316 |
| NC1CCN(Cc2cnc3sc(-c4ccccc4NC(=O)c4cccc(-c5ccccc5)c4)nc3c2)CC1 [Compound 11] | 78 | 578 |
| NC1CCN(Cc2cnc3sc(-c4ccccc4NC(=O)c4cccc(-c5ccncc5)c4)nc3c2)CC1 [Compound 12] | 249 | 550 |
| O=C(Nc1ccccc1-c1nc2cc(CN3CCCC3)cnc2s1)c1cccc(-c2ccccc2)c1 [Compound 13] | 584 | 252 |
| CC(C)NCc1cnc2sc(-c3ccccc3NC(=O)c3cccc(-c4ccccn4)c3)nc2c1 [Compound 14] | 937 | 381 |
| C[C@@H]1CN(Cc2cnc3sc(-c4ccccc4NC(=O)c4cccc(-c5ccccn5)c4)nc3c2)C[C@H](C)N1 [Compound 15] | 627 | 531 |
| C[C@@H]1CN(Cc2cnc3sc(-c4ccccc4NC(=O)c4cccc(-c5cccnc5)c4)nc3c2)C[C@H](C)N1 [Compound 16] | 674 | 405 |
| C[C@@H]1CN(Cc2cnc3sc(-c4ccccc4NC(=O)c4cccc(-c5ccncc5)c4)nc3c2)C[C@H](C)N1 [Compound 17] | 683 | 360 |
| NC1CCN(Cc2cnc3sc(-c4ccccc4NC(=O)c4cccc(-c5cccnc5)c4)nc3c2)CC1 [Compound 18] | 620 | 457 |
| CC(C)NCc1cnc2sc(-c3ccccc3NC(=O)c3cccc(-c4ccccc4)c3)nc2c1 [Compound 19] | 722 | 198 |

| SMILES | EC1.5 (concentration of test compound that results in 150% activation of SIRT1) [NM] | Emax [%] |
| --- | --- | --- |
| O=C(Nc1ccccc1-c1nc2cc(CN3CCCC3)cnc2s1)c1cccc(-c2ccccn2)c1 [Compound 20] | 687 | 224 |
| NC1CCN(Cc2cnc3sc(-c4ccccc4NC(=O)c4cccc(-c5ccccn5)c4)nc3c2)CC1 [Compound 21] | 162 | 906 |
| CC(C)NCc1cnc2sc(-c3ccccc3NC(=O)c3cccc(-c4ccncc4)c3)nc2c1 [Compound 22] | 2620 | 417 |
| CC(C)NCc1cnc2sc(-c3ccccc3NC(=O)c3cccc(-c4cccnc4)c3)nc2c1 [Compound 23] | 1950 | 241 |
| C[C@@H]1CN(Cc2cnc3sc(-c4ccccc4NC(=O)c4cccc(-c5ccccc5)c4)nc3c2)C[C@H](C)N1 [Compound 24] | 94 | 299 |
| O=C(Nc1ccccc1-c1nc2cc(CN3CC[C@@H](F)C3)cnc2s1)c1cccc(-c2ccccc2)c1 [Compound 25] | 469 | 203 |
| O=C(Nc1ccccc1-c1nc2cc(CN3CC[C@@H](F)C3)cnc2s1)c1cccc(-c2ccccn2)c1 [Compound 26] | 455 | 192 |
| O=C(Nc1ccccc1-c1nc2cc(CN3CC[C@@H](F)C3)cnc2s1)c1cccc(-c2cccnc2)c1 [Compound 27] | 913 | 185 |
| CC(C)NCc1cnc2sc(-c3ccccc3NC(=O)c3cncc(-c4ccccc4)c3)nc2c1 [Compound 28] | 3590 | 162 |
| O=C(Nc1ccccc1-c1nc2cc(CN3C[C@@H]4C[C@H]3CN4)cnc2s1)c1cccc(-c2cccnc2)c1 [Compound 29] | 462 | 378 |
| O=C(Nc1ccccc1-c1nc2cc(CN3CC[C@@H](F)C3)cnc2s1)c1cccc(-c2ccc[n+]([O-])c2)c1 [Compound 30] | 986 | 142 |
| O=C(Nc1ccccc1-c1nc2cc(CN3CC[C@@H](F)C3)cnc2s1)c1cccc(-c2ncccn2)c1 [Compound 31] | 1000 | 168 |
| Cc1nc(-c2cccc(C(=O)Nc3ccccc3-c3nc4cc(CN5CC[C@@H](F)C5)cnc4s3)c2)cs1 [Compound 32] | 815 | 162 |
| COCCN1CCN(Cc2cnc3sc(-c4ccccc4NC(=O)c4cccc(-c5ccccc5)c4)nc3c2)CC1 [Compound 33] | 91 | 533 |
| COCCN1CCN(Cc2cnc3sc(-c4ccccc4NC(=O)c4cccc(-c5ccccn5)c4)nc3c2)CC1 [Compound 34] | 281 | 492 |
| COCCN1CCN(Cc2cnc3sc(-c4ccccc4NC(=O)c4cncc(-c5ccccc5)c4)nc3c2)CC1 [Compound 35] | 554 | 234 |
| O=C(Nc1ccccc1-c1nc2cc(CN[C@H]3CCNC3)cnc2s1)c1cccc(-c2ccccn2)c1 [Compound 37] | 507 | 422 |
